Data published in patent publication US20140031325A1, “COMBINATION THERAPY WITH LENALIDOMIDE AND A CDK INHIBITOR FOR TREATING MULTIPLE MYELOMA” (Celgene Corporation, priority 2010, published 2014).

How the values were obtained:
[1] = test system: newly diagnosed multiple myeloma; experiment: Combination therapy of lenalidomide and dexamethasone in patients with newly diagnosed multiple myeloma; assay type: in vivo
Text: Most adverse events were manageable with dose modification. The combination therapy is an effective first-line therapy for the treatment of patients with newly diagnosed multiple myeloma.

[2] = test system: multiple myeloma; experiment: Combination therapy of lenalidomide and CDK4/CDK6 inhibitor (PD 0332991) in patients with multiple myeloma; assay type: in vivo
Procedure: Lenalidomide and a CDK4/CDK6 inhibitor control tumor expansion and enhance tumor killing in the treatment of multiple myeloma. Patients with multiple myeloma are treated with lenalidomide (Revlimid®, 5 to 25 mg/day orally on days 1-21 in a 28 days cycle) and a CDK4/CDK6 inhibitor (PD 0332991, 25 to 150 mg/day orally on days 1-21 in a 28 days cycle). Maintenance treatment are continued until the disease progression.

[3] = lenalidomide in combination with dexamethasone, newly diagnosed multiple myeloma

Compound: Nc1cccc2c1CN(C1CCC(=O)NC1=O)C2=O (stereo not drawn) [lenalidomide, 3-(4-amino-1-oxo-1,3-dihydro-isoindol-2-yl)-piperidine-2,6-dione]
- overall response rate and complete response [1, 3]: high overall response rate and complete response
- progression-free survival at 1 year [1, 3]: significantly increased progression-free survival at 1 year
- tolerability [1, 3]: well tolerated
- patient response ([1]; newly diagnosed multiple myeloma patients, lenalidomide 25 mg/day days 1-21 of 28-day cycle in combination with dexamethasone 40 mg/day (days 1-4, 9-12, 17-20 or days 1, 8, 15, 22)): most of patients responded
- activity of the therapy in multiple myeloma patients ([2]; Revlimid 5 to 25 mg/day orally days 1-21 of 28-day cycle in combination with PD 0332991 25 to 150 mg/day orally days 1-21): highly active
- tolerability ([2]; Revlimid 5 to 25 mg/day orally in combination with PD 0332991 25 to 150 mg/day orally, multiple myeloma patients): well tolerated
